Results on six molecules are retold here after ChEMBL document CHEMBL2434952, “Morphological changes of some pathogenic microbial strains induced by novel thiadiazole derivatives” (2013).

Converted amounts (≈) assume the structure as drawn. The source made the active and inactive calls. The rule behind the calls is not given here.

The subject of test [1] is Candida albicans. In words: Antifungal activity against Candida albicans assessed as growth inhibition at 30 ug/disk measured after 24 to 48 hrs by agar disk diffusion method. Type of test: functional, organism-based. On the technique in general: A growth-free zone around the sample is the usual read-out of agar diffusion tests.
The subject of test [2] is Staphylococcus aureus. In words: Antibacterial activity against Staphylococcus aureus assessed as growth inhibition at 30 ug/disk measured after 24 to 48 hrs by agar disk diffusion method in absence of 24.4 Gy gamma-irradiation. Type of test: functional. The conditions noted are these: light or radiation study, read-out: IZ.
Test [3] concerns Staphylococcus epidermidis. In words: Antibacterial activity against Staphylococcus epidermidis assessed as growth inhibition at 30 ug/disk measured after 24 to 48 hrs by agar disk diffusion method. The format is functional. As to conditions: read-out: IZ.
The subject of test [4] is Bacillus cereus. As to the kind of experiment: Antibacterial activity against Bacillus cereus assessed as growth inhibition at 30 ug/disk measured after 24 to 48 hrs by agar disk diffusion method. Type of test: functional. The conditions noted are these: read-out: IZ.
For test [5], the system named is Staphylococcus aureus. As to the kind of experiment: Antibacterial activity against Staphylococcus aureus assessed as growth inhibition at 30 ug/disk measured after 24 to 48 hrs by agar disk diffusion method. Type of test: functional. As to conditions: read-out: IZ.
For test [6], the system named is Staphylococcus epidermidis. As to the kind of experiment: Antibacterial activity against Staphylococcus epidermidis assessed as growth inhibition at 30 ug/disk measured after 24 to 48 hrs by agar disk diffusion method in absence of 24.4 Gy gamma-irradiation. Type of test: functional. The conditions noted are these: light or radiation study, read-out: IZ.
The test system of test [7] is Pseudomonas aeruginosa. As to the kind of experiment: Antibacterial activity against Pseudomonas aeruginosa assessed as growth inhibition at 30 ug/disk measured after 24 to 48 hrs by agar disk diffusion method. Type of test: functional. As to conditions: read-out: IZ.
Test [8] relates to Staphylococcus epidermidis. In words: Antibacterial activity against Staphylococcus epidermidis assessed as growth inhibition at 30 ug/disk measured after 24 to 48 hrs by agar disk diffusion method in presence of 24.4 Gy gamma-irradiation. The conditions noted are these: light or radiation study, read-out: IZ. Type of test: functional.
Test [9] concerns Klebsiella pneumoniae. In words: Antibacterial activity against Klebsiella pneumoniae assessed as growth inhibition at 30 ug/disk measured after 24 to 48 hrs by agar disk diffusion method. Type of test: functional. The conditions noted are these: read-out: IZ.
For test [10], the system named is Staphylococcus aureus. In words: Antibacterial activity against Staphylococcus aureus assessed as growth inhibition at 30 ug/disk measured after 24 to 48 hrs by agar disk diffusion method in presence of 24.4 Gy gamma-irradiation. Type of test: functional. As to conditions: light or radiation study, read-out: IZ.
Test [11] concerns Bacillus cereus. As to the kind of experiment: Antibacterial activity against Bacillus cereus assessed as growth inhibition at 30 ug/disk measured after 24 to 48 hrs by agar disk diffusion method in presence of 24.4 Gy gamma-irradiation. The format is functional. As to conditions: light or radiation study, read-out: IZ.
The subject of test [12] is Bacillus cereus. In words: Antibacterial activity against Bacillus cereus assessed as growth inhibition at 30 ug/disk measured after 24 to 48 hrs by agar disk diffusion method in absence of 24.4 Gy gamma-irradiation. The conditions noted are these: light or radiation study, read-out: IZ. The format is functional.
Test [13] deals with Bacillus cereus. In words: Antibacterial activity against Bacillus cereus assessed as growth inhibition measured after 24 to 48 hrs by agar disk diffusion method in absence of 24.4 Gy gamma-irradiation. Type of test: functional.
Test [14] relates to Candida albicans. In words: Antifungal activity against Candida albicans assessed as growth inhibition measured after 24 to 48 hrs by agar disk diffusion method. The format is functional, organism-based.
The test system of test [15] is Staphylococcus aureus. As to the kind of experiment: Antibacterial activity against Staphylococcus aureus assessed as growth inhibition measured after 24 to 48 hrs by agar disk diffusion method. The format is functional.
Test [16] relates to Bacillus cereus. As to the kind of experiment: Antibacterial activity against Bacillus cereus assessed as growth inhibition measured after 24 to 48 hrs by agar disk diffusion method. The format is functional.
Test [17] deals with Staphylococcus epidermidis. In words: Antibacterial activity against Staphylococcus epidermidis assessed as growth inhibition measured after 24 to 48 hrs by agar disk diffusion method in presence of 24.4 Gy gamma-irradiation. Type of test: functional.
The subject of test [18] is Staphylococcus epidermidis. In words: Antibacterial activity against Staphylococcus epidermidis assessed as growth inhibition measured after 24 to 48 hrs by agar disk diffusion method. Type of test: functional.
Test [19] relates to Staphylococcus aureus. As to the kind of experiment: Antibacterial activity against Staphylococcus aureus assessed as growth inhibition measured after 24 to 48 hrs by agar disk diffusion method in presence of 24.4 Gy gamma-irradiation. The format is functional.
Test [20] relates to Pseudomonas aeruginosa. In words: Antibacterial activity against Pseudomonas aeruginosa assessed as growth inhibition measured after 24 to 48 hrs by agar disk diffusion method. The format is functional, organism-based.
Test [21] has as its system Klebsiella pneumoniae. As to the kind of experiment: Antibacterial activity against Klebsiella pneumoniae assessed as growth inhibition measured after 24 to 48 hrs by agar disk diffusion method. The format is functional, organism-based.
For test [22], the system named is Staphylococcus epidermidis. In words: Antibacterial activity against Staphylococcus epidermidis assessed as growth inhibition measured after 24 to 48 hrs by agar disk diffusion method in absence of 24.4 Gy gamma-irradiation. The format is functional.
Test [23] concerns Bacillus cereus. As to the kind of experiment: Antibacterial activity against Bacillus cereus assessed as growth inhibition measured after 24 to 48 hrs by agar disk diffusion method in presence of 24.4 Gy gamma-irradiation. The format is functional.
The test system of test [24] is Staphylococcus aureus. As to the kind of experiment: Antibacterial activity against Staphylococcus aureus assessed as growth inhibition measured after 24 to 48 hrs by agar disk diffusion method in absence of 24.4 Gy gamma-irradiation. The format is functional.
Test [25] concerns Staphylococcus aureus. In words: Antibacterial activity against Staphylococcus aureus assessed as septum disappearance at MIC by scanning electron microscopic analysis. The format is functional, organism-based.
For test [26], the system named is Bacillus cereus. As to the kind of experiment: Antibacterial activity against Bacillus cereus assessed as growth inhibition measured for 24 hrs by agar streak dilution method in absence of 24.4 Gy gamma-irradiation. Type of test: functional. As to conditions: light or radiation study.
For test [27], the system named is Staphylococcus aureus. In words: Antibacterial activity against Staphylococcus aureus assessed as appearance of projected cellular material and membrane blebbing at MIC by scanning electron microscopic analysis. Type of test: functional, organism-based.
Test [28] has as its system Bacillus cereus. As to the kind of experiment: Antibacterial activity against Bacillus cereus assessed as elongation of cell surface at MIC by scanning electron microscopic analysis. The format is functional, organism-based.
Test [29] relates to Staphylococcus aureus. In words: Antibacterial activity against Staphylococcus aureus assessed as growth inhibition measured for 24 hrs by agar streak dilution method in absence of 24.4 Gy gamma-irradiation. As to conditions: light or radiation study. Type of test: functional.
The subject of test [30] is Staphylococcus aureus. As to the kind of experiment: Antibacterial activity against Staphylococcus aureus assessed as elongation of cell surface at MIC by scanning electron microscopic analysis in presence of 24.4 Gy gamma-irradiation. Type of test: functional, organism-based.
Test [31] deals with Bacillus cereus. As to the kind of experiment: Antibacterial activity against Bacillus cereus assessed as aggregation of cellular material at poles at MIC by scanning electron microscopic analysis. Type of test: functional, organism-based.
Test [32] has as its system Staphylococcus aureus. As to the kind of experiment: Antibacterial activity against Staphylococcus aureus assessed as deformity of cell surface at MIC by scanning electron microscopic analysis in presence of 24.4 Gy gamma-irradiation. The format is functional, organism-based.
The test system of test [33] is Bacillus cereus. In words: Antibacterial activity against Bacillus cereus assessed as septum disappearance at MIC by scanning electron microscopic analysis. The format is functional, organism-based.
The test system of test [34] is Bacillus cereus. As to the kind of experiment: Antibacterial activity against Bacillus cereus assessed as shortening of cell surface at MIC by scanning electron microscopic analysis. Type of test: functional, organism-based.
Test [35] concerns Staphylococcus aureus. As to the kind of experiment: Antibacterial activity against Staphylococcus aureus assessed as growth inhibition measured for 24 hrs by agar streak dilution method in presence of 24.4 Gy gamma-irradiation. Type of test: functional. The conditions noted are these: light or radiation study.

Take NYSTATIN: the inhibition zone (IZ) with Candida albicans [1] stood at 7 mm.
Regarding `NCC[C@H](O)C(=O)N[C@@H]1C[C@H](N)[C@@H](O[C@H]2O[C@H](CN)[C@@H](O)[C@H](O)[C@H]2O)[C@H](O)[C@H]1O[C@H]1O[C@H](CO)[C@@H](O)[C@H](N)[C@H]1O` [AMIKACIN], the zone of inhibition at 30 µg/disc with Staphylococcus aureus [2] was 20 mm; in test [3] it was 25 mm; with Bacillus cereus [4], 20 mm; in the test with Staphylococcus aureus [5], 20 mm; in test [6], 24 mm; with Pseudomonas aeruginosa [7], 15 mm. Further, the zone of inhibition at 30 µg/disc came to 25 mm in test [8]; 11 mm in the test on Klebsiella pneumoniae [9]; 17 mm with Staphylococcus aureus [10]; 20 mm in the test with Bacillus cereus [11]; 20 mm with Bacillus cereus [12].
As to `S=c1[nH]nc(/N=C/c2ccccc2Cl)s1`, the “inhibition zone (IZ)” value in the test with Bacillus cereus [13] worked out at 20 mm; in the test with Staphylococcus aureus [15], 20 mm; with Bacillus cereus [16], 22 mm; in test [17], 13 mm; in test [18], 12 mm; in the test with Staphylococcus aureus [19], 16 mm. Also, the “inhibition zone (IZ)” value stood at 13 mm in [22], 16 mm in the test with Bacillus cereus [23] and 16 mm with Staphylococcus aureus [24]. The “growth inhibition (GI)” value in the test with Candida albicans [14], with Pseudomonas aeruginosa [20] and in the test with Klebsiella pneumoniae [21] was “inactive” each time.
For the molecule `O=C(Nc1ccccc1)Nc1nnc(S)s1`, the “inhibition zone (IZ)” value with Bacillus cereus [13] is 7 mm; with Staphylococcus aureus [15], 10 mm; in the test on Bacillus cereus [16], 7 mm; in [17], 10 mm; in test [18] it was 9 mm; with Staphylococcus aureus [19] it was 10 mm. The “inhibition zone (IZ)” value amounted to 7 mm in test [22], 9 mm in the test on Bacillus cereus [23] and 7 mm in the test on Staphylococcus aureus [24]. Further, the “growth inhibition (GI)” value in the test on Candida albicans [14], in the test with Pseudomonas aeruginosa [20] and with Klebsiella pneumoniae [21] was “inactive” each time.
Turning to `O=CN(C=O)c1n[nH]c(=S)s1`, the “inhibition zone (IZ)” value worked out at 13 mm in the test with Bacillus cereus [13]; 20 mm in the test with Staphylococcus aureus [15]; 22 mm with Bacillus cereus [16]; 13 mm in [17]; 20 mm in [18]; 16 mm with Staphylococcus aureus [19]. The “inhibition zone (IZ)” value is given as 13 mm in test [22], 20 mm in the test with Bacillus cereus [23] and 20 mm in the test with Staphylococcus aureus [24]. Moreover, the “growth inhibition (GI)” value in the test with Candida albicans [14], with Pseudomonas aeruginosa [20] and in the test with Klebsiella pneumoniae [21] was “inactive” throughout.
For orientation: MIC means the least concentration at which growth counts as inhibited. Take `N#Cc1c(-c2ccccc2)cn(-c2n[nH]c(=S)s2)c1N`: the outcome with Staphylococcus aureus [25], with Staphylococcus aureus [27], in the test on Bacillus cereus [28], with Staphylococcus aureus [30], in the test with Bacillus cereus [31] and with Staphylococcus aureus [32] was Active. Moreover, the result with Bacillus cereus [33] and in the test on Bacillus cereus [34] was Active. For the same molecule, the “inhibition zone (IZ)” value in the test on Bacillus cereus [13] was found to be 25 mm; in the test with Staphylococcus aureus [15], 25 mm; with Bacillus cereus [16], 20 mm; in test [17], 25 mm; in [18], 17 mm; with Staphylococcus aureus [19] it was 19 mm. Further, the “inhibition zone (IZ)” value in test [22] came out at 12 mm; in the test on Bacillus cereus [23] it was 25 mm; in the test on Staphylococcus aureus [24], 20 mm. Besides, the “growth inhibition (GI)” value with Candida albicans [14], with Pseudomonas aeruginosa [20] and with Klebsiella pneumoniae [21] was “inactive” each time. The MIC in the test on Bacillus cereus [26] stood at 250 µg/mL (≈ 835 µM); with Staphylococcus aureus [29], 125 µg/mL (≈ 418 µM); with Staphylococcus aureus [35], 250 µg/mL.
